Results: PubChem BioAssay AID330 (DTP/NCI, 2004)
Values joined by “and” are separate entries in the source; they are usually repeats but may differ in a detail not shown here. Equal values may be shown once. Toxic doses and inconclusive results are not listed. Rule for the calls: active = survival T/C of 150% or more; inactive = T/C below 125% in these data.

System: P388 leukemia ip, CD2F1 mice, survival T/C
Assay: NCI In Vivo Anticancer Drug Screen. Data for tumor model P388 Leukemia (intraperitoneal) in CD2F1 (CDF1) mice
Details: endpoint: median survival time, higher = longer survival
How it was run: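 Mice carrying the transplanted tumor received test compound or vehicle. Survival was recorded in each group, and the value is the treated-group measurement divided by that of the vehicle-treated control group.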

[1] = dose: 50.0 mg/kg/injection, schedule: Q01DX009 (ip), vehicle: saline with Tween-80
[2] = dose: 100.0 mg/kg/injection, schedule: Q01DX009 (ip), vehicle: saline with Tween-80
[3] = dose: 200.0 mg/kg/injection, schedule: Q01DX009 (ip), vehicle: saline with Tween-80
[4] = dose: 12.5 mg/kg/injection, schedule: Q01DX005 (ip), vehicle: Klucel (hydroxypropylcellulose) (HPC)
[5] = dose: 25.0 mg/kg/injection, schedule: Q01DX005 (ip), vehicle: Klucel (hydroxypropylcellulose) (HPC)
[6] = dose: 50.0 mg/kg/injection, schedule: Q01DX005 (ip), vehicle: Klucel (hydroxypropylcellulose) (HPC)
[7] = dose: 100.0 mg/kg/injection, schedule: Q04DX002 (ip), vehicle: Klucel (hydroxypropylcellulose) (HPC)
[8] = dose: 200.0 mg/kg/injection, schedule: Q04DX002 (ip), vehicle: Klucel (hydroxypropylcellulose) (HPC)
[9] = dose: 400.0 mg/kg/injection, schedule: Q04DX002 (ip), vehicle: Klucel (hydroxypropylcellulose) (HPC)
[10] = dose: 60.0 mg/kg/injection, schedule: Q01DX005 (ip), vehicle: saline with Tween-80
[11] = dose: 120.0 mg/kg/injection, schedule: Q01DX005 (ip), vehicle: saline with Tween-80
[12] = dose: 240.0 mg/kg/injection, schedule: Q01DX005 (ip), vehicle: saline with Tween-80

Measured: T/C

Cc1nn(-c2ccccc2)c(SC(C)(C)C)c1C=NCCN=Cc1c(C)nn(-c2ccccc2)c1SC(C)(C)C
inactive: dose: 3.75 mg/kg/injection, schedule: Q01DX005 (ip), vehicle: Klucel (hydroxypropylcellulose) (HPC) 100 % of control | dose: 7.5 mg/kg/injection, schedule: Q01DX005 (ip), vehicle: Klucel (hydroxypropylcellulose) (HPC) 98 % of control | dose: 15.0 mg/kg/injection, schedule: Q01DX005 (ip), vehicle: Klucel (hydroxypropylcellulose) (HPC) 100 % of control

N#Cc1c(NC(=S)NC(=O)c2ccc(Cl)c(Cl)c2)sc(=S)c2c1CCCC2
inactive: [1] 108 % of control | [2] 96 % of control | [3] 92 % of control

C1CC2CC1CC2CNCC1CC2CCC1C2 (configuration not stated)
inactive: [4] 103 % of control | [5] 103 % of control | [6] 98 % of control and 101 % of control

CCOC(=O)C(=CNC1CC(OC2C[C@](O)(C(C)=O)Cc3c(O)c4c(c(O)c32)C(=O)c2c(OC)cccc2C4=O)OC(C)C1O)C(=O)OCC (some centres not stated)
inactive: dose: 6.25 mg/kg/injection, schedule: Q04DX003 (ip), vehicle: saline with Tween-80 95 % of control | dose: 12.5 mg/kg/injection, schedule: Q04DX003 (ip), vehicle: saline with Tween-80 100 % of control | dose: 25.0 mg/kg/injection, schedule: Q04DX003 (ip), vehicle: saline with Tween-80 104 % of control | dose: 50.0 mg/kg/injection, schedule: Q04DX003 (ip), vehicle: saline with Tween-80 108 % of control

C/C(=N\NC(N)=O)C1(c2ccccc2)CCN(C)CC1
inactive: [7] 100 % of control | [8] 97 % of control | [9] 96 % of control

COc1ccccc1C1=Nc2ccccc2N=C(c2ccccc2O)C1
inactive: [10] 107 % of control | [11] 100 % of control | [12] 90 % of control

C[n+]1cccc2c1-c1ccccc1C2=O
inactive: [5] 101 % of control | [6] 115 % of control | dose: 100.0 mg/kg/injection, schedule: Q01DX005 (ip), vehicle: Klucel (hydroxypropylcellulose) (HPC) 101 % of control | dose: 200.0 mg/kg/injection, schedule: Q01DX005 (ip), vehicle: Klucel (hydroxypropylcellulose) (HPC) 91 % of control

N#C/C=C1\NC(=O)CS1
inactive: [1] 95 % of control | [2] 100 % of control | [3] 95 % of control

OC(Cc1ccnc2ccccc12)C(Cl)(Cl)Cl (configuration not stated)
inactive: dose: 200.0 mg/kg/injection, schedule: Q04DX003 (ip), vehicle: saline with Tween-80 104 % of control | dose: 400.0 mg/kg/injection, schedule: Q04DX003 (ip), vehicle: saline with Tween-80 90 % of control

O=C(NC(Cc1ccccc1)C(=O)CCC(=O)N1CCCC1C(=O)O)c1ccccc1 (configuration not stated)
inactive: dose: 50.0 mg/kg/injection, schedule: Q04DX002 (ip), vehicle: saline with Tween-80 103 % of control | dose: 100.0 mg/kg/injection, schedule: Q04DX002 (ip), vehicle: saline with Tween-80 101 % of control | dose: 200.0 mg/kg/injection, schedule: Q04DX002 (ip), vehicle: saline with Tween-80 101 % of control | dose: 400.0 mg/kg/injection, schedule: Q04DX002 (ip), vehicle: saline with Tween-80 101 % of control

ClC1=C(Cl)C(Cl)=C(Cl)C1=C/C=C/c1ccccc1
inactive: dose: 25.0 mg/kg/injection, schedule: Q01DX009 (ip), vehicle: saline with Tween-80 99 % of control | [1] 100 % of control | [2] 91 % of control

O=C1c2ccccc2C(=O)c2c(NCC3CO3)ccc(NCC3CO3)c21 (configuration not stated)
inactive: dose: 0.75 mg/kg/injection, schedule: Q01DX005 (ip), vehicle: Klucel (hydroxypropylcellulose) (HPC) 112 % of control | dose: 1.5 mg/kg/injection, schedule: Q01DX005 (ip), vehicle: Klucel (hydroxypropylcellulose) (HPC) 112 % of control | dose: 3.0 mg/kg/injection, schedule: Q01DX005 (ip), vehicle: Klucel (hydroxypropylcellulose) (HPC) 114 % of control | dose: 6.0 mg/kg/injection, schedule: Q01DX005 (ip), vehicle: Klucel (hydroxypropylcellulose) (HPC) 114 % of control

Cn1cnnc1[N+](=O)[O-]
inactive: dose: 25.0 mg/kg/injection, schedule: Q04DX003 (ip), vehicle: saline sonified 100 % of control | dose: 50.0 mg/kg/injection, schedule: Q04DX003 (ip), vehicle: saline sonified 95 % of control | dose: 100.0 mg/kg/injection, schedule: Q04DX003 (ip), vehicle: saline sonified 90 % of control

Clc1nc2nc3n(c2nc1Cl)CCC3(Br)Br
inactive: [10] 97 % of control | [11] 109 % of control | [12] 103 % of control

CCCC1(c2ccccc2)CCCC(C#N)C1=O (configuration not stated)
inactive: [7] 104 % of control | [8] 107 % of control | [9] 106 % of control

C/C(=N\NC(N)=S)c1ccccc1
inactive: dose: 3.12 mg/kg/injection, schedule: Q01DX009 (ip), vehicle: Klucel (hydroxypropylcellulose) (HPC) 106 % of control | dose: 6.25 mg/kg/injection, schedule: Q01DX009 (ip), vehicle: Klucel (hydroxypropylcellulose) (HPC) 111 % of control | dose: 12.5 mg/kg/injection, schedule: Q01DX009 (ip), vehicle: Klucel (hydroxypropylcellulose) (HPC) 114 % of control

CC1(C)OCC(C2OC3OC(C)(C)OC3C2N2CCC(O)O2)O1 (configuration not stated)
inactive: dose: 97.75 mg/kg/injection, schedule: Q04DX002 (ip), vehicle: saline 103 % of control | dose: 195.5 mg/kg/injection, schedule: Q04DX002 (ip), vehicle: saline 109 % of control | dose: 391.0 mg/kg/injection, schedule: Q04DX002 (ip), vehicle: saline 105 % of control

CN(C(=O)C(Cl)Cl)c1ccc(-c2csc(-c3ccc(O)cc3)n2)cc1
inactive: dose: 100.0 mg/kg/injection, schedule: Q04DX003 (ip), vehicle: Klucel (hydroxypropylcellulose) (HPC) 100 % of control | dose: 200.0 mg/kg/injection, schedule: Q04DX003 (ip), vehicle: Klucel (hydroxypropylcellulose) (HPC) 99 % of control | dose: 400.0 mg/kg/injection, schedule: Q04DX003 (ip), vehicle: Klucel (hydroxypropylcellulose) (HPC) 99 % of control

C1=CCC(CC[Si]23OCCN(CCO2)CCO3)CC1 (configuration not stated)
inactive: [4] 103 % of control | [5] 96 % of control | [6] 101 % of control and 96 % of control

CC(O)CC1(c2ccccc2)C(=O)NC(=O)NC1=O (configuration not stated)
inactive: [1] 98 % of control | [2] 98 % of control | [3] 95 % of control

C[C@@H]1C[C@@H]2c3cccc4[nH]cc(c34)C[C@H]2N(C)C1
inactive: dose: 3.12 mg/kg/injection, schedule: Q01DX005 (ip), vehicle: saline with Tween-80 98 % of control | dose: 6.25 mg/kg/injection, schedule: Q01DX005 (ip), vehicle: saline with Tween-80 98 % of control | dose: 12.5 mg/kg/injection, schedule: Q01DX005 (ip), vehicle: saline with Tween-80 100 % of control

COc1ccc(C(=O)N2N=C(C)C(C)(C)C2(C)O)cc1 (configuration not stated)
inactive: dose: 60.0 mg/kg/injection, schedule: Q01DX005 (ip), vehicle: Klucel (hydroxypropylcellulose) (HPC) 104 % of control | dose: 120.0 mg/kg/injection, schedule: Q01DX005 (ip), vehicle: Klucel (hydroxypropylcellulose) (HPC) 109 % of control | dose: 240.0 mg/kg/injection, schedule: Q01DX005 (ip), vehicle: Klucel (hydroxypropylcellulose) (HPC) 104 % of control

CCOc1cnc(CO)o1
inactive: dose: 100.0 mg/kg/injection, schedule: Q04DX003 (ip), vehicle: saline 103 % of control | dose: 200.0 mg/kg/injection, schedule: Q04DX003 (ip), vehicle: saline 104 % of control | dose: 400.0 mg/kg/injection, schedule: Q04DX003 (ip), vehicle: saline 97 % of control

CCOC(=O)C(C#N)C1(c2ccccc2)CCCCC1 (configuration not stated)
inactive: [1] 112 % of control | [2] 101 % of control | [3] 101 % of control

C[n+]1c(C[n+]2ccccc2)ccc2ccccc21
inactive: dose: 50.0 mg/kg/injection, schedule: Q01DX005 (ip), vehicle: saline 105 % of control | dose: 100.0 mg/kg/injection, schedule: Q01DX005 (ip), vehicle: saline 106 % of control
